According to paper PMC2810100 (Journal of medicinal chemistry, 2009):

Key:
[1] = tested on: CpIMPDH; details: cited from earlier work
[2] = biological target: T1, recombinant CpIMPDH (Cryptosporidium parvum, UniProt Q8T6T2); assay type: biochemical; details: without BSA
T1 sequence (Q8T6T2 1-400): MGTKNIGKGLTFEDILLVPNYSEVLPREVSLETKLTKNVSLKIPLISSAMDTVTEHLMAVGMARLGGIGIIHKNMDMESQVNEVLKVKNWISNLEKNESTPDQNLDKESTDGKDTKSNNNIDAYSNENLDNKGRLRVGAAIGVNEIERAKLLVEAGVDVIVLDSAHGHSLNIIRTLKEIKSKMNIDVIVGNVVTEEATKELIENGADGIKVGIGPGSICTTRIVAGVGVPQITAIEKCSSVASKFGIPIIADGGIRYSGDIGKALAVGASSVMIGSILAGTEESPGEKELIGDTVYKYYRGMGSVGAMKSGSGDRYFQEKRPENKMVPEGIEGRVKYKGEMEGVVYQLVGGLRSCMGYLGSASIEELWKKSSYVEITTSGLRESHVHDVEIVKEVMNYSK

Structure (SMILES)	Mode of inhibition with respect to 1 (IMP) [1]	Mode of inhibition with respect to NAD+ [1]	Fold more potent than the (S)-enantiomer (33) [2]
CC(Oc1ccccc1)C(=O)Nc1ccc(Cl)cc1 (stereo not drawn) [Compound 5]	uncompetitive inhibition	noncompetitive (mixed) inhibition	–
C[C@@H](Oc1ccnc2ccccc12)c1cn(-c2ccc(Cl)c(Cl)c2)nn1 [Compound 32, (R)-4-(1-(1-(3,4-dichlorophenyl)-1H-1,2,3-triazol-4-yl)ethoxy)quinoline]	–	–	~ 14 fold
